Laboratory results from PubChem BioAssay AID1963835 (Molecular Pharmacology Branch, DTP, NCI, 2024).
Values joined by “and” are separate entries in the source; they are usually repeats but may differ in a detail not shown here. Equal entries are not always repeated.

Tested on: 699152-130-R-J1-PDC complex spheroid viability
Assay: Anticancer human tumor 699152-130-R-J1-PDC patient-derived pancreatic carcinoma cell line growth inhibition [POLQ]
Details: for viability, T/C: stronger effect = lower value; active = viability on the fitted dose curve at most 10% of control; inactive = the rest
Protocol: Multicellular complex tumor spheroid response to Polymerase (POL) inhibitors (novobiocin, ART-558, RP6685) in combination with a variety of drugs and investigational agents in selected tumor cell lines
The POL inhibitors (novobiocin, ART-558, and RP6685) were evaluated both individually and in combination with standard of care and investigational anticancer small molecules within a complex spheroid model of solid tumors. . Complex spheroids include a stromal component modeled by human endothelial cells (HUVEC) and fibroblasts modeled by human mesenchymal stem cells (MSCs). The concentration ranges selected for each drug and investigational agent were based upon clinically achievable concentrations if the clinical Cmax of the agent was known.
Compounds. The drugs and investigational agents: novobiocin (NSC847541), ART-558 (NSC835418), RP-6685 (NSC848927), peposertib (NSC802822), ceralasertib (NSC780249), elimusertib (NSC800525), camonsertib (NSC841442), AZD-1390 (NSC803789), olaparib (NSC753686), talazoparib (NSC767125), rucaparib (NSC756644), sotorasib (NSC818433), MRTX-1133 (NSC836407), SN-38 (NSC673596), topotecan (NSC609699), epotoside (NSC141540), doxorubicin (NSC123127), gemcitabine (NSC613327), 5-fluorouracil (NSC19893), paclitaxel (NSC125973), vemurafenib (NSC761431), MSA-2 (NSC828583), SN-011 (NSC837082), adavosertib (NSC754352), prexasertib (NSC758257), carboplatin (NSC241240) and oxaliplatin (NSC266046), were obtained from the National Cancer Institute (NCI) Developmental Therapeutics Program Chemical Repository (21). The FDA-approved anticancer drug set is available from the Developmental Therapeutics Program at https://dtp.cancer.gov/organization/dscb/obtaining/. […] The stock solutions were prepared in dimethyl sulfoxide (DMSO, Sigma-Aldrich, St. Louis, MO, cat. D2650), except for the platinum compounds which were prepared in saline (Quality Biological, Gaithersburg, MD, cat. 114-055-101), at 800-fold the tested concentration and stored at -70 degrees C prior to their use. All drugs and investigational agents were tested over a range starting from a high concentration at or near the clinical Cmax and decreasing in half-log increments. If the clinical Cmax for an agent had not been determined, the highest concentration tested was 10 microM, except for SN-38, which was tested at a high concentration of 1 microM.
Cell Culture. All cells were maintained in an incubator at 37 degrees C and 5% CO2 with 95% humidity. The PDC lines were cultured according to standard operating procedures established by the NCI PDMR (https://pdmr.cancer.gov). Table 3 of the manuscript, lists the cell lines along with the number of the three cell types plated to form the mct-spheroids and media for tumor cell growth. After thawing, all PDC lines, except 997537-175-T-J1-PDC and 415267-285-R-J2-PDC, were cultured in Matrigel-coated flasks prepared with a working solution of 1X Ham's F-12 nutrient mix, without supplementation (Thermo Fisher Scientific, cat. 11765054), 100 U/mL penicillin-streptomycin (Thermo Fisher Scientific, cat. 15140122), and 2.5% Matrigel (Corning Inc., Corning, NY, cat. 354248) for the first three passages. The two PDC lines 997537-175-T-J1-PDC and 415267-285-R-J2-PDC were cultured on uncoated flasks. The 857933-349-R-J2-PDC line was cultured in 6C/Colon 1B media containing advanced DMEM/F-12 (Thermo Fisher Scientific, cat. 12634028), 10 mM HEPES (Thermo Fisher Scientific, cat. 15630080), 1X GlutaMAX supplement (Thermo Fisher Scientific, cat. 35050061), 0.1 mg/mL primocin (InvivoGen, San Diego, CA, cat. ant-pm-2), 10% defined fetal bovine serum, heat inactivated (HyClone Laboratories Inc., Logan, UT, cat. SH30070.03HI), 50% L-WRN conditioned media (ATCC, cat. CRL-3276), 1.25 mM N-Acetyl-L-cysteine (Sigma-Aldrich, cat. A9165), 10 mM nicotinamide (Sigma-Aldrich, cat. N0636), 1X B-27 supplement (Thermo Fisher Scientific, cat. 17504044), 1X N-2 supplement (Thermo Fisher Scientific, cat. […]
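Also: spheroids exposed to agents for 7 days before viability reading.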
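For viability, T/C in this document: percent of DMSO vehicle control viability so 100% = vehicle and 0% = no viable signal.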

COc1cccc2c1C(=O)c1c(O)c3c(c(O)c1C2=O)CC(O)(C(=O)CO)CC3OC1CC(N)C(O)C(C)O1 (configuration not stated) + COC1C(OC(N)=O)C(O)C(Oc2ccc3c(O)c(NC(=O)c4ccc(O)c(CC=C(C)C)c4)c(=O)oc3c2C)OC1(C)C
235 nM: IC50 (curve of first compound, second compound 0.1 µM)
225 nM: IC50 (curve of first compound, second compound 1 µM)
300 nM: IC50 (curve of first compound, second compound 3.16 µM)
active: viability, T/C (second compound 3.16 µM, first compound 10 µM) 10.6%
304 nM: IC50 (curve of first compound, second compound 10 µM)
244 nM: IC50 (curve of first compound, second compound 0.316 µM)
284 nM: IC50 (curve of first compound, second compound 0.0316 µM)
inactive: viability, T/C (second compound 0.0316 µM, first compound 0.0316 µM) 82.1% | viability, T/C (second compound 0.0316 µM, first compound 0.1 µM) 92.9% | viability, T/C (second compound 0.0316 µM, first compound 0.316 µM) 43.7% | viability, T/C (second compound 0.0316 µM, first compound 1 µM) 24.3% | viability, T/C (second compound 0.0316 µM, first compound 3.16 µM) 3.71% | viability, T/C (second compound 0.0316 µM, first compound 10 µM) 9.4% | viability, T/C (second compound 0.1 µM, first compound 0.0316 µM) 79% | viability, T/C (second compound 0.1 µM, first compound 0.1 µM) 86.8% | viability, T/C (second compound 0.1 µM, first compound 0.316 µM) 38.5% | viability, T/C (second compound 0.1 µM, first compound 1 µM) 27% | viability, T/C (second compound 0.1 µM, first compound 3.16 µM) 3.59% | viability, T/C (second compound 0.1 µM, first compound 10 µM) 13.3% | viability, T/C (second compound 0.316 µM, first compound 0.0316 µM) 66.8% | viability, T/C (second compound 0.316 µM, first compound 0.1 µM) 97.2% | viability, T/C (second compound 0.316 µM, first compound 0.316 µM) 40.7% | viability, T/C (second compound 0.316 µM, first compound 1 µM) 26.1% | viability, T/C (second compound 0.316 µM, first compound 3.16 µM) 2.4% | viability, T/C (second compound 0.316 µM, first compound 10 µM) 10.4% | viability, T/C (second compound 1 µM, first compound 0.0316 µM) 69.7% | viability, T/C (second compound 1 µM, first compound 0.1 µM) 96.7% | viability, T/C (second compound 1 µM, first compound 0.316 µM) 35.9% | viability, T/C (second compound 1 µM, first compound 1 µM) 27.5% | viability, T/C (second compound 1 µM, first compound 3.16 µM) 2.69% | viability, T/C (second compound 1 µM, first compound 10 µM) 12.1% | viability, T/C (second compound 3.16 µM, first compound 0.0316 µM) 73% | viability, T/C (second compound 3.16 µM, first compound 0.1 µM) 88.1% | viability, T/C (second compound 3.16 µM, first compound 0.316 µM) 41.5% | viability, T/C (second compound 3.16 µM, first compound 1 µM) 28% | viability, T/C (second compound 3.16 µM, first compound 3.16 µM) 3.59% | viability, T/C (second compound 10 µM, first compound 0.0316 µM) 76% | viability, T/C (second compound 10 µM, first compound 0.1 µM) 95.2% | viability, T/C (second compound 10 µM, first compound 0.316 µM) 48.8% | viability, T/C (second compound 10 µM, first compound 1 µM) 21.6% | viability, T/C (second compound 10 µM, first compound 3.16 µM) 6.39% | viability, T/C (second compound 10 µM, first compound 10 µM) 13.2%

C#Cc1c(F)ccc2cc(O)cc(-c3ncc4c(N5CC6CCC(C5)N6)nc(OCC56CCCN5CC(F)C6)nc4c3F)c12 (configuration not stated)
inactive: viability, T/C (compound 0.0316 µM) 24.6% and 29.7% and 27.3% | viability, T/C (compound 0.1 µM) 19.7% and 18.3% and 19.8% | viability, T/C (compound 0.316 µM) 18.1% and 15.8% and 16.3% | viability, T/C (compound 1 µM) 15% and 13.9% and 15.6% | viability, T/C (compound 3.16 µM) 14.4% and 11.4% and 13.7% | viability, T/C (compound 10 µM) 12.7% and 13.8% and 11%
< 31.6 nM: IC50 (curve of compound)

Nc1ccc(C#CCN(C(=O)Cc2ncc(C(F)(F)F)cc2C(F)(F)F)c2ccc(F)cc2)nn1
> 10000 nM: IC50 (compound alone, run of 12/05/2023)
inactive: viability, T/C (compound 0.0316 µM) 96.2% [middle of 13 runs] | viability, T/C (compound 0.1 µM) 99.3% [middle of 13 runs] | viability, T/C (compound 0.316 µM) 101% [middle of 13 runs] | viability, T/C (compound 1 µM) 101% [middle of 13 runs] | viability, T/C (compound 3.16 µM) 103% [middle of 13 runs] | viability, T/C (compound 10 µM) 113% [middle of 13 runs]

CC1COCCN1c1cc(-c2ccnn2C)c2ccnc(-c3ccn[nH]3)c2n1 (configuration not stated)
> 10000 nM and 5900 nM: IC50 (curve of compound)
inactive: viability, T/C (compound 0.0316 µM) 94.9% and 97.6% and 88.8% | viability, T/C (compound 0.1 µM) 89.1% (2×) and 80.8% | viability, T/C (compound 0.316 µM) 71.1% and 68.5% and 77.8% | viability, T/C (compound 1 µM) 63.7% and 58.2% and 58.9% | viability, T/C (compound 3.16 µM) 49% and 54.1% and 49.1% | viability, T/C (compound 10 µM) 56.3% and 58.4% and 50.5%

CCCS(=O)(=O)Nc1ccc(F)c(C(=O)c2c[nH]c3ncc(-c4ccc(Cl)cc4)cc23)c1F
8440 nM and 9190 nM and > 10000 nM: IC50 (curve of compound)
inactive: viability, T/C (compound 0.0316 µM) 109% and 96.3% and 112% | viability, T/C (compound 0.1 µM) 112% and 102% and 110% | viability, T/C (compound 0.316 µM) 129% and 120% and 116% | viability, T/C (compound 1 µM) 158% and 156% and 128% | viability, T/C (compound 3.16 µM) 187% and 182% and 192% | viability, T/C (compound 10 µM) 34.7% and 43.6% and 56.4%

C=CC(=O)N1CCN(c2nc(=O)n(-c3c(C)ccnc3C(C)C)c3nc(-c4c(O)cccc4F)c(F)cc23)C(C)C1 (configuration not stated)
> 10000 nM: IC50 (curve of compound)
inactive: viability, T/C (compound 0.0316 µM) 105% and 104% and 110% | viability, T/C (compound 0.1 µM) 103% and 99.2% and 98% | viability, T/C (compound 0.316 µM) 108% (2×) and 115% | viability, T/C (compound 1 µM) 113% and 97.7% and 121% | viability, T/C (compound 3.16 µM) 118% and 115% and 113% | viability, T/C (compound 10 µM) 109% and 106% and 105%
